Data on 82 molecules can be found in PubChem BioAssay AID720495 (Broad Institute, 2013).

Records with an inconclusive call do not appear. Calls of active or inactive are those of the source. The rule behind the calls is not given here.

For this assay, the target named is Protein AF-9 (Homo sapiens) (UniProt P42568). Kind of assay: inhibitors of AF4-AF9 protein interaction, dose response, biochemical, cherry-picked samples, plate reader (AID 720495). Conditions: biochemical protein-protein interaction assay; for activity change, negative = inhibition: at 10 µM (top of the series).
Protein AF-9 (Homo sapiens), sequence (P42568 whole entry, looked up): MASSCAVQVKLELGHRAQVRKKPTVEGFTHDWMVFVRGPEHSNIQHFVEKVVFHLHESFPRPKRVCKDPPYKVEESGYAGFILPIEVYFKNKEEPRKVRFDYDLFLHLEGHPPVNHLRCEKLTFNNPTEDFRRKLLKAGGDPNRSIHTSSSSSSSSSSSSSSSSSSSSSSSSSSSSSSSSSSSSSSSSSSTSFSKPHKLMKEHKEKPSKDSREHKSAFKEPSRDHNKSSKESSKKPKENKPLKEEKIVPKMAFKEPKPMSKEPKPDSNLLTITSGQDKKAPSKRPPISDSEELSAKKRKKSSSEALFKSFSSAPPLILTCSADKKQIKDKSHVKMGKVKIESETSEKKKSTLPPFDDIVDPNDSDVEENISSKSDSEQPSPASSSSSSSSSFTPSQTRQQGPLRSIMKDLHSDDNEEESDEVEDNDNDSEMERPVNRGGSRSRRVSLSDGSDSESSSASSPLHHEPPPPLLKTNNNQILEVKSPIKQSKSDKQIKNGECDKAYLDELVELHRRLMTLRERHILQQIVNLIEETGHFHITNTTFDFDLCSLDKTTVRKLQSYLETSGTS

One may read the AC50 as the midpoint of the concentration-response curve, whichever way the signal moves. With `NCC(O)c1cc(O)c(O)cc1F` (configuration not stated), the AC50 is 6140 nM.
Take `Cn1ccc2c(N3CCCCCC3)cc3c(c21)C1CCC3C1` (configuration not stated): the “activity change, negative = inhibition” value was “inactive”.
On the same count and under the same terms, for `CC(=O)Nc1ccc(S(=O)(=O)NC2=C(N3CCN(Cc4ccccc4)CC3)C(=O)c3ccccc3C2=O)cc1` the value was “inactive”.
Take `CC1C(=NO)C(C)C(c2ccc(N(C)C)cc2)NC1c1ccc(N(C)C)cc1` (configuration not stated): the AC50 is 10400 nM.
On to `COc1cccc(NC2=C(NCCO)C(=O)c3ccccc3C2=O)c1`, for which the AC50 is 6380 nM.
Still for that read-out and setting: for `Cn1c(=O)cc2c3c(c(N4CCCCC4)ccc31)C(=O)c1ccccc1-2` the value was 8320 nM.
As for `CCCCCN=C(N)N/N=C/c1c[nH]c2ccc(OC)cc12`, the “activity change, negative = inhibition” value was “inactive”.
On to `CCN(CC)c1ccc(C(=C2C=CC(=[N+](CC)CC)C=C2)c2ccc(S(=O)(=O)O)cc2S(=O)(=O)[O-])cc1`, for which the AC50 is 4290 nM.
Take `Cc1cc(C)cc(OCC(O)CN2CCC(CN3C(=O)c4cccc5cccc(c45)C3=O)CC2)c1` (configuration not stated): the “activity change, negative = inhibition” value was “inactive”.
Take `CCOC(=O)C1CCN(C2=C(NS(=O)(=O)c3ccc(Cl)cc3)C(=O)c3ccccc3C2=O)CC1`: the “activity change, negative = inhibition” value was “inactive”.
As for `COc1cc(C2CC(=O)Oc3c(C(CCN4CCOCC4)c4ccc(N(C)C)cc4)c(OC)cc(OC)c32)cc(OC)c1OC` (configuration not stated), the AC50 was 1550 nM.
Consider `Cc1cc2c(cc1C)N[C@]1(C[C@H]3CCCC(=O)N4CC[C@@H](C1)[C@@H]34)C(=NC(C)(C)CC(C)(C)C)N2`, for which the “activity change, negative = inhibition” value is “inactive”.
Consider `COc1ccc(C#Cc2ccc3c(c2)[C@H]2[C@H](CCN2C(=O)c2ccncc2)[C@@H](CO)N3)cc1`, for which the AC50 was 10700 nM.
Same read-out and setting: the same measure for `CCN(CCCl)c1cc(CN(C)C)cc(NC(=O)c2ccc(C(=O)Nc3cc(CN(C)C)cc(N(CC)CCCl)c3)cc2)c1`: 683 nM.
For the molecule `COc1ccc(OC)c(NC2=C(Cl)C(=O)N(Cc3ccccc3)C2=O)c1`, the “activity change, negative = inhibition” value is “inactive”.
With `COc1ccccc1NC(c1cccnc1)c1ccc2cccnc2c1O` (configuration not stated), the “activity change, negative = inhibition” value was “inactive”.
On the same count and under the same terms, for `CN(C)c1ccc(NC2=C(Cl)C(=O)c3ccccc3C2=O)cc1` the value was “inactive”.
For the molecule `C#CCOCCOCCOCCNc1nc(N2CCN(C(=O)[C@H](CCCCN)n3cc([C@@H](N)C(C)CC)nn3)CC2)nc(N2CCN(C(=O)[C@H](CCCCN)n3cc([C@@H](N)CC(C)C)nn3)CC2)n1` (some centres not stated), the AC50 was 702 nM.
For the molecule `CC(C)(C)C1=CC(=Nc2ccccc2N)C=C(C(C)(C)C)C1=O`, the AC50 is 761 nM.
Regarding `Oc1c(C(c2ccccn2)N2CCCCC2)cc(Cl)c2cccnc12` (configuration not stated), the AC50 is 1840 nM.
As to `Cc1csc(Nc2ccccc2)[n+]1-c1ccccc1`, the “activity change, negative = inhibition” value was “inactive”.
For `CN(C)c1ccc(NC(=O)Cn2cc3c(n2)CCCC3)cc1`, the “activity change, negative = inhibition” value is “inactive”.
Turning to `CN=c1scc(-c2ccc(OC)cc2)n1/N=C(\C)c1cccnc1`, the “activity change, negative = inhibition” value is “inactive”.
Turning to `Cc1[nH]c2ccccc2c1C(C#N)(C#N)C1C(=O)c2ccccc2C1=O`, the AC50 is 981 nM.
In the case of `O=C(c1ccc(-c2cc(O)c3ncccc3c2)cc1)N1CCNCC1`, the AC50 was 426 nM.
On to `CN=c1scc(-c2cccs2)n1/N=C/c1ccccc1O`, for which the “activity change, negative = inhibition” value was “inactive”.
Consider `COc1ccc(C2CC(=O)Oc3c(C(CCN4CCCC(C)C4)c4ccc(N(C)C)cc4)c(OC)cc(OC)c32)cc1` (configuration not stated), for which the AC50 is 680 nM.
For `CN(C)c1ccnc2c[cH-]cc12.[Fe].c1ccc(-[c-]2[c-](-c3ccccc3)[c-](-c3ccccc3)[c-](-c3ccccc3)[c-]2-c2ccccc2)cc1` (configuration not stated), the “activity change, negative = inhibition” value was “inactive”.
On to `Cn1cc(CN2CCC(C(=O)NC(c3ccc(F)cc3)c3ccc4ccccc4n3)CC2)c2ccccc21` (configuration not stated), for which the “activity change, negative = inhibition” value was “inactive”.
The same measure, in the same setting: the same measure for `O=C(Nc1cccc(CNCCc2c[nH]c3ccccc23)c1)c1ccccc1Cl`: “inactive”; for `Cc1ccc(NC(=S)N(CCCN2CCCC2)Cc2cccn2Cc2ccc(Cl)cc2)cc1`: “inactive”.
Turning to `CCCN(CC1CC1)c1cc2c(c3c1ccn3C)C1CCC2C1` (configuration not stated), the AC50 was 7790 nM.
With `Cc1cccc(-c2ccc3[nH]c4c(c3c2)CCN2C[C@H]3[C@H](C)ON(C)[C@H]3C[C@@H]42)c1`, the “activity change, negative = inhibition” value was “inactive”.
Consider `NC(N)=NCCCS(=O)(=O)Nc1ccc(Nc2c3ccccc3nc3cc([N+](=O)[O-])ccc23)cc1`, for which the AC50 is 2850 nM.
On to `CN(C)c1ccc(N=Nc2ccccc2Br)cc1`, for which the AC50 was 10300 nM.
On the same count and under the same terms, the same measure for `COc1cc(OC)c2c(c1C(CCN1CCOCC1)c1ccc(N(C)C)cc1)OC(=O)CC2c1ccc(N(C)C)cc1` (configuration not stated): 10700 nM.
As to `CCN1CCN(c2ccc(N)c(C)c2)CC1`, the “activity change, negative = inhibition” value was “inactive”.
On the same count and under the same terms, the same measure for `CN(C)c1ccc(C(CN)c2c[nH]c3ccccc23)cc1` (configuration not stated): “inactive”.
Regarding `O=C1C(NS(=O)(=O)c2ccc(Cl)cc2)=C(N2CCCCC2)C(=O)c2ccccc21`, the AC50 is < 80 nM.
On the same count and under the same terms, for `CN(C)c1ccc(N=Cc2cccn2C)cc1` the value was 830 nM.
On to `Cc1ccc2ccc(C(Nc3cccc(C(F)(F)F)c3)c3cccnc3)c(O)c2n1` (configuration not stated), for which the “activity change, negative = inhibition” value was “inactive”.
Still for that read-out and setting: the same measure for `S=C(c1ccc(-c2cccc(Cl)c2)o1)N1CCOCC1`: “inactive”; for `CC(C)N1CCN(c2ccc(OC[C@H]3CO[C@](Cn4cncn4)(c4ccc(Cl)cc4Cl)O3)cc2)CC1`: “inactive”; for `COc1cc2c(cc1N)-c1ccc(N)cc1C2=O`: “inactive”.
Same read-out and setting: the same measure for `Cn1ccc2c(/C=C/c3ccc(F)cc3)cc3c(c21)C1CCC3C1` (configuration not stated): “inactive”; for `COc1ccc(CN2CCC(N(CCc3ccccc3)Cc3ccccc3)CC2)c(OC)c1`: “inactive”.
For `CN(C)c1ccc(Nc2nc(N)c3ccccc3n2)cc1`, the AC50 is 7470 nM.
For `O=C(Cc1cccnc1)N1CC(=O)N2[C@H](C1)[C@H](c1ccc(C3=CCCC3)cc1)[C@@H]2CO`, the “activity change, negative = inhibition” value was “inactive”.
On the same count and under the same terms, for `O=C(NCCCN1CCCC1=O)C1CCN(S(=O)(=O)c2cccc(C(F)(F)F)c2)CC1` the value was “inactive”.
Take `N#C/C(C(N)=O)=c1/ccc2c(c1)N1C3=C(CCCC3)CC3CCCCC31N=2` (configuration not stated): the AC50 is 767 nM.
For the molecule `Cc1ccc2c(c1)c1c3n2CCCN(Cc2ccccc2)C3CCC1` (configuration not stated), the “activity change, negative = inhibition” value is “inactive”.
For the molecule `CN[C@H]1C[C@H]2c3[nH]c4ccc(-c5cccc(C)c5)cc4c3CCN2C[C@H]1[C@H](C)O`, the AC50 was 6970 nM.
Take `O=C(NC1CCCCC1)C(c1cccnc1)N(C(=O)CCl)c1cccc(Cl)c1` (configuration not stated): the “activity change, negative = inhibition” value is “inactive”.
Turning to `CCSc1ccc(-c2cc(NC=O)c3ncc(-c4cccc(C(=O)NCCN(C)C)c4)n3c2)cc1`, the AC50 was 798 nM.
Consider `Nc1ccc(N)c(C(=O)O)c1`, for which the “activity change, negative = inhibition” value was “inactive”.
As for `CCCC(=O)NC(c1ccc(N(C)C)cc1)c1ccc2cccnc2c1O` (configuration not stated), the AC50 was 1040 nM.
Take `COc1cc(OC)c2c(-c3ccccc3)cc(=O)oc2c1C(CCN1CCCC(C)C1)c1ccc(N(C)C)cc1` (configuration not stated): the AC50 is 943 nM.
Turning to `Cc1cc(N=Nc2ccc(Cl)cc2)cc(CN2CCOCC2)c1O`, the “activity change, negative = inhibition” value is “inactive”.
For the molecule `COc1ccc(C(CCNCc2ccc(N(C)C)cc2)C(C)C)cc1` (configuration not stated), the AC50 was 2880 nM.
Turning to `CCC[C@@H](CN1CCC[C@H]1CN1C(N)=NC[C@@H]1Cc1ccccc1)N1C[C@@H](Cc2ccccc2)N(CCc2ccc(Cl)c(Cl)c2)C1=N`, the AC50 was 5410 nM.
On to `Cc1ccsc1/C=N/N1CCN(Cc2ccccc2)CC1`, for which the “activity change, negative = inhibition” value was “inactive”.
Turning to `COc1ccc(S(=O)(=O)/N=C2\C=C(Nc3ccc(O)cc3)C(=O)c3ccccc32)cc1`, the AC50 is 724 nM.
The same measure, in the same setting: the same measure for `CCN(CC)CCOc1ccc(/C(=C(/Cl)c2ccccc2)c2ccccc2)cc1`: 529 nM; for `CN1CCN(CCCCOc2ccccc2C=O)CC1`: 10600 nM.
On to `C#CCOCCOCCOCCNc1nc(N2CCN(C(=O)[C@H](CCCN=C(N)N)n3cc(C(N)[C@@H](C)CC)nn3)CC2)nc(N2CCN(C(=O)[C@H](CCCCN)n3cc([C@@H](N)CC(N)=O)nn3)CC2)n1` (some centres not stated), for which the “activity change, negative = inhibition” value was “inactive”.
Turning to `COCCN=c1scc(-c2ccco2)n1/N=C/c1ccc(O)c(O)c1O`, the AC50 was 538 nM.
Regarding `COc1ccc(-n2cc(CNCCc3cnc[nH]3)c(-c3cccc(F)c3)n2)cc1`, the “activity change, negative = inhibition” value is “inactive”.
For `O=C(N/N=C/c1c(O)ccc2ccccc12)c1ccc[n+](CCO)c1`, the AC50 is 257 nM.
Regarding `CCC(=O)N1CC2(CCN(Cc3ccc(Cl)cc3)CC2)c2c([nH]c3cc(OC)ccc23)[C@H]1CO`, the AC50 was 10400 nM.
With `CCN1CCN(c2ccc(N)cc2)CC1`, the AC50 is 1540 nM.
`CCC1CN2CCc3cc(OC)c(OC)cc3C2CC1CC1NCCc2c1[nH]c1ccc(O)cc21` (configuration not stated): the AC50 was 7260 nM.
Take `O=C(NCCc1cccc(F)c1)C1CCCN(c2nc3ccccc3s2)C1` (configuration not stated): the “activity change, negative = inhibition” value was “inactive”.
Consider `Cc1cccc(N=NC(=S)NNc2cccc(C)c2)c1`, for which the AC50 is 212 nM.
As to `COc1ccc(CN2CC3(C2)CN(Cc2ccc4c(c2)OCO4)[C@H](CO)c2[nH]c4cc(OC)ccc4c23)cc1`, the “activity change, negative = inhibition” value is “inactive”.
As for `Cc1nn(-c2ccccc2)c(Cl)c1/C=C1\C(=O)N(C)C(=S)N1C`, the “activity change, negative = inhibition” value was “inactive”.
For the molecule `CN(C)c1cccc2c(C=C(C#N)C#N)ccc(N(C)C)c12`, the AC50 is 1040 nM.
In the case of `CN1CCN(C2CCN(Cc3ccc(O)c4ncccc34)CC2)CC1`, the AC50 is 2770 nM.
As to `COc1ccc(C)cc1Nc1n[n+](-c2ccccc2)c(-c2c(Cl)cccc2Cl)s1`, the “activity change, negative = inhibition” value was “inactive”.
Take `CCc1nc2ccc(C(=O)NC3CCN(Cc4ccccc4)CC3)cn2c1N(C)Cc1ccc(N(C)C)cc1`: the AC50 is 5520 nM.
For `CCOc1ccc(Nc2nc(NCC3CCCO3)c3ccccc3n2)cc1` (configuration not stated), the “activity change, negative = inhibition” value was “inactive”.
`O=C1C(Cl)=CC(=Nc2ccc(O)cc2)C=C1Cl`: the AC50 was 11400 nM.
On the same count and under the same terms, the same measure for `C[n+]1c(-c2ccc(C=NNC(=O)c3ccc(C(=O)NN=Cc4ccc(-c5cn6ccccc6[n+]5C)cc4)cc3)cc2)cn2ccccc21`: 804 nM.
